Source: PMC6002473, “An Evolutionarily Conserved Structural Platform for PRC2 Inhibition by a Class of Ezh2 Inhibitors” (Scientific Reports, 2018)

Target: T1, ctEzh2 (ctPRC2) (Thermochaetoides thermophila, UniProt G0SDW4)
T1 construct: gene EZH2; Fusion of Ezh2 (residues 191–950) and the VEFS domain of Suz12 (residues 530–691), and full length Eed (residues 1–565); with Eed, Suz12(VEFS)
T1 sequence (G0SDW4 191-950): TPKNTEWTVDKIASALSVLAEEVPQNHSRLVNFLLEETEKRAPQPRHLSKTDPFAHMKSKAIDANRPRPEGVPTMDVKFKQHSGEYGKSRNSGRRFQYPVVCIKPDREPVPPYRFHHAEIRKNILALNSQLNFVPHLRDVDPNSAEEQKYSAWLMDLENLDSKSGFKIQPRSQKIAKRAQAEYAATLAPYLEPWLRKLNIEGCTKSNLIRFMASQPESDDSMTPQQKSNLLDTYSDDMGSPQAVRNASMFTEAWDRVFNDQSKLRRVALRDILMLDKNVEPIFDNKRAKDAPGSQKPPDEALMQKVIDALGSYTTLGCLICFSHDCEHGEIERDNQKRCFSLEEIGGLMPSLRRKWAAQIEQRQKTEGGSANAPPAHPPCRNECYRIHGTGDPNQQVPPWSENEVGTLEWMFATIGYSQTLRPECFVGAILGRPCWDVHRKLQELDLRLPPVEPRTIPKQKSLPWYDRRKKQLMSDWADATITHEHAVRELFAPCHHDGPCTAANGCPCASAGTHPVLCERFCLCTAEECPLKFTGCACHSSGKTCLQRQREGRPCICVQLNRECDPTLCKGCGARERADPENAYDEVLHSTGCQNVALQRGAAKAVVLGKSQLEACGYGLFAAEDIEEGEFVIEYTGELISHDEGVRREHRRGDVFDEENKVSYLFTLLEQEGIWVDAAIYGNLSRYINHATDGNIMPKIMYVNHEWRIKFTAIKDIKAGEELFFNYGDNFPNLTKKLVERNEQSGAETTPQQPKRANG
T1 sequence (G0S8H7 1-565 partner): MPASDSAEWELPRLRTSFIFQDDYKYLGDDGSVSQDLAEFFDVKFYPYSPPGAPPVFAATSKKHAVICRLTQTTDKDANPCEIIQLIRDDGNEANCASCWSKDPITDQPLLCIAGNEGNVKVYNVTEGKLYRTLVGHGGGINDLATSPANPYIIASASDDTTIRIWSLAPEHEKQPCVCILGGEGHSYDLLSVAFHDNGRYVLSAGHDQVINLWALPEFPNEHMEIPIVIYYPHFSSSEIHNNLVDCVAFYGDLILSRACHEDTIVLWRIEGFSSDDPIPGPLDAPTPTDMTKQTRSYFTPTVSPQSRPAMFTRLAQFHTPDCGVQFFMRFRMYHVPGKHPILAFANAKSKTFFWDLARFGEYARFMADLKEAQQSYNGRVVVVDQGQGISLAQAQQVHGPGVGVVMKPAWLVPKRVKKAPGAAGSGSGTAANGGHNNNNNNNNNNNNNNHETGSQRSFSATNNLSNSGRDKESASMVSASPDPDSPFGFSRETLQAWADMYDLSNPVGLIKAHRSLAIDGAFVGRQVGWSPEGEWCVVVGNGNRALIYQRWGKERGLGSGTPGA
T1 sequence (G0RYC6 530-691 partner): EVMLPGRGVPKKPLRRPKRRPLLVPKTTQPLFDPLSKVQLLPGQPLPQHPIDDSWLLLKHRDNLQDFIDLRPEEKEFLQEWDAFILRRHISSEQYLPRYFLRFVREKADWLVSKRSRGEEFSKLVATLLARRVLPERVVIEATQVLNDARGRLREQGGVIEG
Experiment: co-crystal structure ([…] Å, soaked); radiometric methyltransferase IC50
Type: biochemical

In the case of `CC[C@H](C)n1cc(C)c2c(C(=O)NCc3c(C)cc(C)[nH]c3=O)cc(-c3ccc(N4CCNCC4)nc3)cc21` [GSK126], the IC50 is reported as ~100 µM.
